The structures appear in SMILES notation.

The text below walks through data of patent publication US9296736B2 (priority 2010, dated 2016).

The target of the assay is interaction between GST-hMDM2 (1-188) and biotinylated-p53 (1-83) (Homo sapiens (Human), UniProt Q00987). Briefly: biochemical.
Sequence of interaction between GST-hMDM2 (1-188) and biotinylated-p53 (1-83) (Q00987 1-188): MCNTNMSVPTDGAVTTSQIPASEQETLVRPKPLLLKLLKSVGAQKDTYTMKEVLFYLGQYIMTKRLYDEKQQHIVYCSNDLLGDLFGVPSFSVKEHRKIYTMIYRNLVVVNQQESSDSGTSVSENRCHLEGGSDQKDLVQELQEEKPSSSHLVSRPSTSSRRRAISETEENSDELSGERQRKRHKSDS

For orientation: IC50 means the concentration needed to halve the response being measured. The low end stands for greater potency, the high end for weaker potency. Turning to `CC[C@@H](CNS(=O)(=O)c1cccnc1)N1C(=O)[C@@](C)(CC(=O)O)C[C@H](c2cccc(Cl)c2)[C@H]1c1ccc(Cl)cc1` [Example 196, 2-((3R,5R,6S)-5-(3-chlorophenyl)-6-(4-chlorophenyl)-3-methyl-2-oxo-1-((S)-1-(pyridine-3-sulfonamido)butan-2-yl)piperidin-3-yl)acetic acid], the IC50 was under 1 nM.
